Measured values from publication PMC7400207, “It Takes Two: Dimerization Is Essential for the Broad-Spectrum Predatory and Defensive Activities of the Venom Peptide Mp1a from the Jack Jumper Ant Myrmecia pilosula” (Biomedicines, 2020).
≈ marks a conversion by molar mass, not a printed value.

Columns and labels:
F11 cells = assay: FLIPR calcium assay, activation of F11 cells; assay type: cell-based; conditions: F11 cells, FLIPR
Protocol: F11 cells were cultured as previously described. Cells were maintained on Ham’s F12 media supplemented with 10% fetal bovine serum (FBS), 100 µM hypoxanthine, 0.4 µM aminopterin, and 16 µM thymidine (Hybri-MaxTM, Sigma Aldrich, North Ryde, Australia). Then, 384-well imaging plates (Corning) were seeded 48 h prior to imaging resulting in 90–95% confluence at imaging. Cells were incubated for 30 min with the Calcium 4 assay component A according to the manufacturer’s instructions (Molecular Devices, Sunnyvale, CA, USA) in physiological salt solution (PSS; composition in mM: 140 NaCl, 11.5 D-glucose, 5.9 KCl, 1.4 MgCl2, 1.2 NaH2PO4, 5 NaHCO3, 1.8 CaCl2, 10 HEPES) at 37°C. Fluorescence was measured using a fluorescent imaging plate reader (FLIPR^TETRA) equipped with a CCD camera (Excitation: 470–490 nm, Emission: […]) (Molecular Devices, Sunnyvale, CA, USA). Signals were read every second for 10 s before, and 300 s after the addition of peptides in PSS supplemented with 0.1% bovine serum albumin. All data are the mean ± SEM of assays performed in triplicate. Maximum–minimum fluorescence in the 300 s period after peptide addition was recorded as the response. Concentration–response data were fitted with a four-parameter Hill equation (variable slope) using GraphPad Prism 8 to obtain effective concentration (EC50) values.

S. aureus NRS 1 = conditions: taken from Dekan et al.; cited from earlier work
S. aureus NRS 17 = conditions: taken from Dekan et al.; cited from earlier work
S. aureus NARSA-VRS10 = conditions: taken from Dekan et al.; cited from earlier work
[1] = tested on: S. pneumoniae ATCC 700677; conditions: taken from Dekan et al.; cited from earlier work

CC[C@H](C)[C@H](N)C(=O)N[C@@H](CC(=O)O)C(=O)N[C@@H](Cc1c[nH]c2ccccc12)C(=O)N[C@@H](CCCCN)C(=O)N[C@@H](CCCCN)C(=O)N[C@H](C(=O)N[C@@H](CC(=O)O)C(=O)N[C@@H](Cc1c[nH]c2ccccc12)C(=O)N[C@@H](CCCCN)C(=O)N[C@@H](CCCCN)C(=O)N[C@H](C(=O)N[C@@H](CO)C(=O)N[C@@H](CCCCN)C(=O)N[C@@H](CCCCN)C(=O)N[C@H](C(=O)N[C@H]1CSSC[C@@H](C(=O)N[C@@H](CCCCN)C(=O)N[C@@H](CCCCN)C(=O)N[C@H](C(=O)N[C@@H](CC(C)C)C(=O)N[C@@H](CCCCN)C(=O)N[C@@H](CCC(N)=O)C(N)=O)C(C)C)NC(=O)[C@H](C(C)C)NC(=O)[C@H]([C@@H](C)O)NC(=O)[C@H](CCCCN)NC(=O)[C@H](C(C)C)NC(=O)[C@H](CC(C)C)NC(=O)[C@H](C(C)C)NC(=O)[C@@H](NC(=O)[C@@H](NC(=O)CNC(=O)[C@H](CCCCN)NC(=O)[C@H](CO)NC(=O)[C@@H](NC(=O)[C@H](CC(C)C)NC(=O)CNC(=O)[C@@H](NC(=O)[C@@H](N)CC(C)C)[C@@H](C)CC)C(C)C)[C@@H](C)O)CSSC[C@@H](C(=O)N[C@@H](CCCCN)C(=O)N[C@@H](Cc2ccccc2)C(=O)N[C@@H](CC(C)C)C(N)=O)NC(=O)[C@H](C)NC(=O)[C@H](CCCCN)NC(=O)[C@H](CC(C)C)NC(=O)[C@H](CCSC)NC(=O)[C@H](C(C)C)NC(=O)[C@H](CCCCN)NC1=O)[C@@H](C)O)C(C)C)C(C)C [Analogue 1a, ∆-myrtoxin-Mp1a]
Concentration at which cytolysis (rapid increase in fluorescence followed by decrease to or below baseline) was observed (F11 cells): ≥ 1 µM | EC50 (F11 cells; Calcium 4 dye, max-min fluorescence in 300 s after peptide addition, PSS with 0.1% BSA, mean ± SEM, triplicate, read-out: Neuronal Cell Activation (EC50)): 850 ± 30 nM | MIC (S. aureus NRS 1): 3.2 µM (≈ 17.9 µg/mL) | MIC (S. aureus NRS 17): 0.4 to 0.8 µM | MIC (S. aureus NARSA-VRS10): 0.8 µM (≈ 4.49 µg/mL) | MIC [1]: 0.4 to 0.8 µM
